Eleven compounds from US8710038B2, “Pyrazole kinase modulators and methods of use” (Exelixis, Inc., priority 2004, dated 2014) can be followed below.

The target of one assay is c-Kit (Homo sapiens, UniProt P10721). Nature of the assay: c-Kit biochemical assay (AlphaScreen). From the text:
(§1) AlphaScreen technology is a proximity assay which utilizes the increase in fluorescent signal occurring when donor and acceptor beads are close in proximity. Biotinylated poly(Glu,Tyr) 4:1 is used as the kinase substrate, in conjunction with streptavidin-coated donor beads and anti-phosphortyrosine antibody PY100-coated acceptor beads. Upon phosphorylation, the peptide substrate can bind to both donor and acceptor beads giving rise to an increase in fluorescence. Compounds, ATP, biotinylated poly(Glu, Tyr) and kinases are mixed in a volume of 20 uL for 1 hr at ambient temperature using Greiner 384-well white clear bottom medium binding plates. Following incubation a 10 uL solution containing […] AlphaScreen beads, 75 mM Hepes, pH 7.4, 300 mM NaCl, 120 mM EDTA, 0.3% BSA and 0.03% Tween-20 is added to each well. After 2-16 hr incubation of the beads, plates are read in a Perkin Elmer AlphaQuest reader. The IC50 values correlates well with those of radiometric assays.
c-Kit biochemical activity was assessed using AlphaScreen™ (Perkin Elmer) technology, described above. Test compounds, ATP, biotinylated poly(Glu, Tyr) and c-Kit kinase were combined in a volume of 20 μL in a 384-well white, medium binding microtiter plate (Greiner). Reaction mixtures were incubated for 1 hr at ambient temperature. Reactions were quenched by addition of 10 uL of […] AlphaScreen bead suspension containing 75 mM Hepes, pH 7.4, 300 mM NaCl, 120 mM EDTA, 0.3% BSA and 0.03% Tween-20. After 16 hr incubation at ambient temperature plates were read using an AlphaQuest reader (Perkin Elmer).

For the next assay, the target named is T1, flt-3 (Homo sapiens, UniProt P36888).
T1 construct: baculovirus expressed human Flt-3 kinase domain R571-S993
T1 sequence (P36888 571-993): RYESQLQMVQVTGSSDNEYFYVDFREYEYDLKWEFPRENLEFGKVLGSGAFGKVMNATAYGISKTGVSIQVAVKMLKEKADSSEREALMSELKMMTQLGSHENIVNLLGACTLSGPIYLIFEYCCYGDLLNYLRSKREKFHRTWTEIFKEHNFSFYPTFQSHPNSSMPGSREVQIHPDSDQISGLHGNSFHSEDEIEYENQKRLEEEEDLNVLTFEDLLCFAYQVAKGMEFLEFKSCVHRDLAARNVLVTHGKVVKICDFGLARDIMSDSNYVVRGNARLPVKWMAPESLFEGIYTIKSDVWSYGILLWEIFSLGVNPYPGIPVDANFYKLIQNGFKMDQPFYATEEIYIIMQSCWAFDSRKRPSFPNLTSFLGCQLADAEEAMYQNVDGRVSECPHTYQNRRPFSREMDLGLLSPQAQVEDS
Nature of the assay: flt-3 Luciferase-Coupled Chemiluminescent Kinase assay (LCCA). The format is biochemical. The procedure:
(§2) In the LCCA assays, kinase activity is measured as the percent ATP consumed following the kinase reaction using luciferase-luciferin-coupled chemiluminescence. Greiner 384-well white, clear bottom, medium-binding plates are used for LCCA. Briefly, the kinase reaction is initiated by mixing compounds, ATP and kinase in a 20 uL volume. The mixture is incubated at ambient temperature for 2-4 hrs. At the end of the kinase reaction, a 20 uL luciferase-luciferin mix is added and the chemiluminescent signal is read using a Wallac Victor^2 reader. The luciferase-luciferin mix consists of 50 mM HEPES, pH 7.8, 8.5 ug/mL oxalic acid (pH 7.8), 5 (or 50) mM DTT, 0.4% Triton X-100, 0.25 mg/mL coenzyme A, 63 uM AMP, 28 ug/mL luciferin and 40,000 units of light/mL luciferase. For the LCCA assays, total ATP consumption has been standardized to 25-45% and the IC50 values correlates well with those determined by radiometric assays.
Flt-3 biochemical activity was assessed using a Luciferase-Coupled Chemiluminescent Kinase assay (LCCA) format. Kinase activity was measured as the percent ATP remaining following the kinase reaction. Remaining ATP was detected by luciferase-luciferin-coupled chemiluminescence. Specifically, the reaction was initiated by mixing test compounds, 5 μM ATP, 3 μM poly-EY and 5 nM Flt-3 (baculovirus expressed human Flt-3 kinase domain R571-S993) in a 20 uL assay buffer (20 mM Tris-HCL pH7.5, 10 mM MgCl2, 0.01% Triton X-100, 1 mM DTT, 2 mM MnCl2). The mixture is incubated at ambient temperature for 3 hours after which 20 uL luciferase-luciferin mix is added and the chemiluminescent signal read using a Wallac Victor^2 reader. The luciferase-luciferin mix consists of 50 mM HEPES, pH 7.8, 8.5 ug/mL oxalic acid (pH 7.8), 5 (or 50) mM DTT, 0.4% Triton X-100, 0.25 mg/mL coenzyme A, 63 uM AMP, 28 ug/mL luciferin and 40,000 units of light/mL luciferase.

Another assay deals with T2, EphB4 (Homo sapiens, UniProt P54760).
T2 sequence (P54760 16-987): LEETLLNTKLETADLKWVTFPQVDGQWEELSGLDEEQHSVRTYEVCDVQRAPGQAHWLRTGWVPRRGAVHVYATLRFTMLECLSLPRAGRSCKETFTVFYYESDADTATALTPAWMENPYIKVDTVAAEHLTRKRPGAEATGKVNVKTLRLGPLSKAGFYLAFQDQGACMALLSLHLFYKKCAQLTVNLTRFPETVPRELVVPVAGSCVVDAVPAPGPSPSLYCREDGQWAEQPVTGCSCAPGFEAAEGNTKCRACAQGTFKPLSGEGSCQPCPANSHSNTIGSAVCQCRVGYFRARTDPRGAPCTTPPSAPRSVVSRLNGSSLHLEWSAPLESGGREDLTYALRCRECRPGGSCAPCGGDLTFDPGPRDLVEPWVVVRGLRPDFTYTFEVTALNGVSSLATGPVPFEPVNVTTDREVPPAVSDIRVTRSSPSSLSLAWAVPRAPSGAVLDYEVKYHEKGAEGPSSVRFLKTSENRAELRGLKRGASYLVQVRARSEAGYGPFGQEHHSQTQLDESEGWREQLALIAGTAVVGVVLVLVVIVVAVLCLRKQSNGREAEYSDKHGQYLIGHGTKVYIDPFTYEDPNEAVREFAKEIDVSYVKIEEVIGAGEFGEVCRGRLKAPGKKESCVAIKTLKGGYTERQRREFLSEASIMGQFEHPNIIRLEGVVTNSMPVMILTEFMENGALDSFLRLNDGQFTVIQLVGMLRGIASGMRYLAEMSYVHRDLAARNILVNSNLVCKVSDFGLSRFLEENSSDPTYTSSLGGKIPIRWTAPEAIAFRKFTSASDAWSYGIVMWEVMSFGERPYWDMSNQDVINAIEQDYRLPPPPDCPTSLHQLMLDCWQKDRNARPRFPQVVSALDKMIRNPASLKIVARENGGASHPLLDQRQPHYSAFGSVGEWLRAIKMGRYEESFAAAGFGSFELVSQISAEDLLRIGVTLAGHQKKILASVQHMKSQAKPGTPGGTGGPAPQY
Nature of the assay: EphB4 kinase inhibition assay. The assay is classed as biochemical. The procedure: (§3) Kinase activity and compound inhibition are investigated using one or more of the three assay formats described below. The ATP concentrations for each assay are selected to be close to the Michaelis-Menten constant (KM) for each individual kinase. Dose-response experiments are performed at 10 different inhibitor concentrations in a 384-well plate format. The data are fitted to four-parameter equation (2) below; where Y is the observed signal, X is the inhibitor concentration, Min is the background signal in the absence of enzyme (0% enzyme activity), Max is the signal in the absence of inhibitor (100% enzyme activity), IC50 is the inhibitor concentration at 50% enzyme inhibition and H represents the empirical Hill's slope to measure the cooperativity. Typically H is close to unity. Y=Min+(Max−Min)/(1+(X/IC50)^H) Equation (2) ^33P Phosphoryl Transfer Assay: […]
(§4) Greiner 384-well white, clear bottom, high binding plates are coated with 2 μg/well of protein or peptide substrate in a 50 μL volume overnight at ambient temperature. The coating buffer typically contains 40 μg/mL substrate, 22.5 mM Na2CO3, 27.5 mM NaHCO3, 150 mM NaCl and 3 mM NaN3. The coating solution is aspirated and the plates are washed once with 50 μL of assay buffer and padded dry. Subsequently compounds and enzymes are mixed with γ^33P-ATP (3.3 μCi/nmol) in a total volume of 20 uL in suitable assay buffers. The mixture is incubated at ambient temperature for 1.5-2.5 hrs and terminated by aspiration using a Molecular Devices EMBLA 96-head plate washer. The plates are subsequently washed 6-12 times with PBST or TBS buffer. Scintillation fluid (50 μl/well) is then added, the plates are sealed and activity assessed by liquid scintillation spectrometry using a Perkin Elmer MicroBeta TriLux.
as §2, §1

A further assay has as its target EGFR (Homo sapiens, UniProt P00533). Nature of the assay: EGFR kinase inhibition assay. The format is biochemical. The procedure: as §3, §4, §2, §1

Each structure is given as a SMILES string. Some results are limits rather than exact numbers.

EGFR, sequence (P00533 25-1210, species assumed): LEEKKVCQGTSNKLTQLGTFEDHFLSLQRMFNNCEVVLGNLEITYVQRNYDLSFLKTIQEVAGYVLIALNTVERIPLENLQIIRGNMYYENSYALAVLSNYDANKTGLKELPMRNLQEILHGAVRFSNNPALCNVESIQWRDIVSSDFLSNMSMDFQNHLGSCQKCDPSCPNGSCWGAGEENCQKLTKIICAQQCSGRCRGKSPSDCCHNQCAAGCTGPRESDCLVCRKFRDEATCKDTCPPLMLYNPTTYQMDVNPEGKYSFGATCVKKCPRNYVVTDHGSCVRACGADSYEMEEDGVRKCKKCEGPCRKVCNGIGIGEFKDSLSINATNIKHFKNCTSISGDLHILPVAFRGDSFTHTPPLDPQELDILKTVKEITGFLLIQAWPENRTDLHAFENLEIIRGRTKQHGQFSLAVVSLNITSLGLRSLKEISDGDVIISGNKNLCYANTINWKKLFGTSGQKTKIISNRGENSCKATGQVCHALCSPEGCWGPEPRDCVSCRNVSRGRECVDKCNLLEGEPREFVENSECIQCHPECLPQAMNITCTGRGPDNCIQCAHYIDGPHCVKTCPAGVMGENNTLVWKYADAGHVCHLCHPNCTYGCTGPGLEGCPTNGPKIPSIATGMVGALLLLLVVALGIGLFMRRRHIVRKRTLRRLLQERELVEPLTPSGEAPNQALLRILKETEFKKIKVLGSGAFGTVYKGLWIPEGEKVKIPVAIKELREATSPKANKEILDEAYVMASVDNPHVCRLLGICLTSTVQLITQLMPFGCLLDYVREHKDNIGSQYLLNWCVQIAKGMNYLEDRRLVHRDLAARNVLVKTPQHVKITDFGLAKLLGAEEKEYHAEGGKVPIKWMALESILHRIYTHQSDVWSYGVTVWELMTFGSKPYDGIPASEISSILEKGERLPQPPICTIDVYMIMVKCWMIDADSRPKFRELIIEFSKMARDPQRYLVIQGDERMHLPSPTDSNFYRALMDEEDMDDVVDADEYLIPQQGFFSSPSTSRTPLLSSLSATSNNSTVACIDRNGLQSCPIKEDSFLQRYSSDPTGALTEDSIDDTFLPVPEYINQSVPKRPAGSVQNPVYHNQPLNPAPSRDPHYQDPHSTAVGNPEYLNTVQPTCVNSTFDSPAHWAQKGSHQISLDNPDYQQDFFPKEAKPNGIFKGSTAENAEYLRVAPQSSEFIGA
c-Kit, sequence (P10721 26-976): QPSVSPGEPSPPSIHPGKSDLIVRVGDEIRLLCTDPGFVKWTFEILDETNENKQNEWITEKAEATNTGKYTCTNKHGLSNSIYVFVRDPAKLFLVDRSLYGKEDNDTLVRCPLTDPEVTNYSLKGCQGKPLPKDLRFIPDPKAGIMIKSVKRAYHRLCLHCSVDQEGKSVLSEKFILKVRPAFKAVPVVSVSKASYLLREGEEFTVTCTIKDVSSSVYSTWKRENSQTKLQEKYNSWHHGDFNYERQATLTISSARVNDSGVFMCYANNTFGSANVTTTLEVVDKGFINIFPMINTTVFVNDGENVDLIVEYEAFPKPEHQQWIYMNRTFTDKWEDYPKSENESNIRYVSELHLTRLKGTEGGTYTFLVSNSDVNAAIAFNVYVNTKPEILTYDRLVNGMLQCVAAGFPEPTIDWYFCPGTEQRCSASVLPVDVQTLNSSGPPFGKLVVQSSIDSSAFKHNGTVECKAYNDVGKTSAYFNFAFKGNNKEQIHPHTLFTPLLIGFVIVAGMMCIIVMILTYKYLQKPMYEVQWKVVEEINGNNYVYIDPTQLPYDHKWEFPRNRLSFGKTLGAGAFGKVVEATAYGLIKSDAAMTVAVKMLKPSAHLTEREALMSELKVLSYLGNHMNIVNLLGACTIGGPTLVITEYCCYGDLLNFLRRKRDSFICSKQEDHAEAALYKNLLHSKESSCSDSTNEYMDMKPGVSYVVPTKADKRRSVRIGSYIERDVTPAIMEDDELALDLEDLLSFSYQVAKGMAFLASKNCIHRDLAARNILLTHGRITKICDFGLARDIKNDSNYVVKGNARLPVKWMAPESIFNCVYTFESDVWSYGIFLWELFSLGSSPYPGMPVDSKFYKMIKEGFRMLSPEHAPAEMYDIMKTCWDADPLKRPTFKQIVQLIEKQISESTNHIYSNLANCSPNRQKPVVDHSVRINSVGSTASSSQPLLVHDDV

As to `CN1CCN(c2ccc3nc(-c4cc(/C=C/c5ccc(O)cc5)[nH]n4)[nH]c3c2)CC1` [Entry 1, 4-((E)-2-{3-[6-(4-methylpiperazin-1-yl)-1H-benzimidazol-2-yl]-1H-pyrazol-5-yl}ethenyl)phenol], the IC50 at c-Kit was less than 50 nM; at flt-3, less than 50 nM; against EphB4, 0.5 to 5 µM; on EGFR, more than 5 µM.
On to `CCN1CCN(c2ccc3[nH]c(-c4cc(-c5ccc(NC(=O)Nc6ccc(Cl)c(C(F)(F)F)c6)cc5)[nH]n4)nc3c2)CC1` [Entry 2, N-[4-chloro-3-(trifluoromethyl)phenyl]-N′-(4-{3-[5-(4-ethylpiperazin-1-yl)-1H-benzimidazol-2-yl]-1H-pyrazol-5-yl}phenyl)urea], for which the half-maximal inhibitory concentration (IC50) against c-Kit was less than 50 nM; against flt-3 it was less than 50 nM; against EphB4, more than 5 µM; at EGFR, more than 5 µM.
Take `CCc1cccc(NC(=O)Nc2ccc(-c3cc(-c4nc5cc(N6CCN(CC)CC6)ccc5[nH]4)n[nH]3)cc2)c1` [Entry 3, N-(3-ethylphenyl)-N′-(4-{3-[5-(4-ethylpiperazin-1-yl)-1H-benzimidazol-2-yl]-1H-pyrazol-5-yl}phenyl)urea]: the IC50 was less than 50 nM against c-Kit, less than 50 nM at flt-3, 0.5 to 5 µM against EphB4 and more than 5 µM against EGFR.
Turning to `CCN1CCN(c2ccc3[nH]c(-c4cc(-c5ccc(NC(=O)Nc6cccc(C(F)(F)F)c6)cc5)[nH]n4)nc3c2)CC1` [Entry 4, N-(4-{3-[5-(4-ethylpiperazin-1-yl)-1H-benzimidazol-2-yl]-1H-pyrazol-5-yl}phenyl)-N′-[3-(trifluoromethyl)phenyl]urea], the IC50 is less than 50 nM against c-Kit, less than 50 nM against flt-3, 0.5 to 5 µM on EphB4 and more than 5 µM at EGFR.
`CC(=O)c1cccc(NC(=O)Nc2ccc(-c3cc(-c4nc5cc(N6CCN(C)CC6)ccc5[nH]4)n[nH]3)cc2)c1` [Entry 5, N-(3-acetylphenyl)-N′-(4-{3-[5-(4-methylpiperazin-1-yl)-1H-benzimidazol-2-yl]-1H-pyrazol-5-yl}phenyl)urea]: the IC50 was less than 50 nM against c-Kit, less than 50 nM against flt-3, 0.5 to 5 µM against EphB4 and more than 5 µM at EGFR.
Consider `CN1CCN(c2ccc3[nH]c(-c4cc(-c5ccc(NC(=O)Nc6ccc(Cl)c(Cl)c6)cc5)[nH]n4)nc3c2)CC1` [Entry 6, N-(3,4-dichlorophenyl)-N′-(4-{3-[5-(4-methylpiperazin-1-yl)-1H-benzimidazol-2-l]-1H-pyrazol-5-yl}phenyl)urea], for which the concentration for half-maximal inhibition (IC50) was less than 50 nM against c-Kit, less than 50 nM against flt-3, more than 5 µM against EphB4 and more than 5 µM at EGFR.
As for `CN1CCN(c2ccc3[nH]c(-c4cc(-c5ccc(NC(=O)Nc6cccc(Cl)c6)cc5)[nH]n4)nc3c2)CC1` [Entry 10, N-(3-chlorophenyl)-N′-(4-{3-[5-(4-methylpiperazin-1-yl)-1H-benzimidazol-2-yl]-1H-pyrazol-yl}phenyl)urea], the IC50 was less than 50 nM against c-Kit, less than 50 nM against flt-3 and more than 5 µM on EphB4.
In the case of `O=C(Nc1ccccc1)Nc1ccc(-c2cc(-c3nc4ccccc4[nH]3)n[nH]2)cc1` [Entry 33, N-{4-[3-(1H-benzimidazol-2-yl)-1H-pyrazol-5-yl]phenyl}-N′-phenylurea], the results for the IC50 at c-Kit, at EphB4 and against EGFR were less than 50 nM, more than 5 µM and more than 5 µM, respectively.
`c1ccc(-c2cc(-c3nc4ccccc4[nH]3)n[nH]2)cc1` [Entry 75, 2-(5-phenyl-1H-pyrazol-3-yl)-1H-benzimidazole]: the IC50 against c-Kit and against flt-3 was 500 to 5000 nM in each case.
In the case of `Nc1ccc(-c2cc(-c3nc4ccccc4[nH]3)n[nH]2)cc1` [Entry 77, 4-[3-(1H-benzimidazol-2-yl)-1H-pyrazol-5-yl]aniline], the IC50 against c-Kit and at flt-3 was 500 to 5000 nM each time.
On to `Oc1ccc(/C=C/c2cc(-c3cccc(-c4ccccc4)c3)[nH]n2)cc1` [Entry 78, 4-[(E)-2-(5-biphenyl-3-yl-1H-pyrazol-3-yl)ethenyl]phenol], for which the IC50 at c-Kit and at flt-3 was 500 to 5000 nM each time.
